Measured values from patent publication US20110313672A1, “CELLULAR ANTIOXIDANT ACTIVITY (CAA) ASSAY” (CORNELL UNIVERSITY, priority 2007, published 2011).
Where two headings read alike, the source gives them in different places.

Key:
HepG2 cells [1] = assay: Cellular antioxidant activity (CAA) assay: inhibition of peroxyl radical-induced DCFH oxidation; assay type: cell-based, human; details: for EC50: Homo sapiens; for cellular antioxidant activity, result in words: no PBS wash protocol
Protocol: Cells (e.g., human hepatocellular carcinoma cells; HepG2) are seeded at a density of e.g., 6×10^4/well on a 96-well microplate in 100 μL growth medium/well. It is preferred that only the inside wells of e.g., a 96-well microplate are used for the assay, since the outer wells have increased variation compared to that of the inner wells. Twenty-four hours after seeding the growth medium is removed and the wells are washed with PBS. Triplicate wells are treated for 1 h with 100 μL of a test compound (e.g., pure phytochemical compounds or fruit extracts) plus 25 μM DCFH-DA dissolved in treatment medium.
600 μM ABAP is then applied to the cells in 100 μL HBSS and the 96-well microplate is placed into a plate reader e.g., Fluoroskan Ascent FL plate-reader (ThermoLabsystems, Franklin, Mass.) at 37° C. Emission at 538 nm is measured with excitation at 485 nm, for example every 5 min for 1 h. Each plate should include triplicate control and blank wells: control wells contain cells treated with DCFH-DA and oxidant; blank wells contain cells treated with dye and HBSS without oxidant.
A test compound is assayed in multiple wells of e.g., a 96-well cell culture plate. Some wells are washed with 100 μL of phosphate-buffered saline (PBS) prior to the addition of ABAP, while other wells were not washed prior to the addition of ABAP. It was noted that the measured antioxidant activity of some fruit extracts (e.g., blueberries) was different when a PBS wash was used compared to when there was no PBS wash (see Table 2; FIGS. 3 and 4). This is likely due to non-specific binding of certain antioxidant compounds to the outer membrane, or a reduced uptake of the compound, thus the ratio of antioxidant activity values obtained with a PBS wash compared to a non-PBS wash indicates the bioavailability of the test compound. In order to accurately measure the intracellular antioxidant activity of a test compound, a PBS wash prior to the addition of a peroxyl initiator (e.g, ABAP) is necessary. The values obtained for cells assayed using a PBS wash should be compared to values obtained for the same cells assayed without a PBS wash. One of skill in the art can plan and perform experiments on a test compound in the presence and absence of a PBS wash, in order to accurately assess the intracellular antioxidant capacity of the test compound.
After blank subtraction from the fluorescence readings, the area under the curve of fluorescence versus time is integrated to calculate the cellular antioxidant activity (CAA) value at each concentration of pure phytochemical compound or fruit extract as follows:
where ∫SA is the integrated area under the sample fluorescence versus time curve and ∫CA is the integrated area from the control curve. The median effective dose (EC50) was determined for the pure phytochemical compounds and fruit extracts from the median effect plot of log (fa/fu) vs. log (dose), where fa is the fraction affected and fu is the fraction unaffected by the treatment. To quantify intra-experimental variation, the EC50 values are stated as mean±SD for triplicate sets of data obtained from the same experiment. Inter-experimental variation is obtained for some representative pure phytochemical compounds and fruit extracts by averaging the fluorescence values from triplicate wells in each trial to obtain one EC50 value per experiment and calculating the mean±SD for at least four trials. In each experiment, a standard is used, for example quecetin, thus permitting the cellular antioxidant activities for a test compounds to be expressed as μmol quercetin equivalents (QE)/100 μmol compound. Fruit extracts are expressed as μmol QE/100 g fruit. In order to compare the antioxidant quality of different fruits, cellular antioxidant activity (CAA) is also calculated as μmol QE/100 μmol total phenolics.
Human hepatocellular carcinoma HepG2 cells were seeded at a density of 6×10^4/well on a 96-well microplate in 100 μL growth medium/well. […]

in vitro = details: human
Protocol: (§1) Briefly, HepG2 cells are seeded at 4×10^4/well on a 96-well plate in 100 μL growth medium and incubated for 24 h at 37° C. The medium is removed and the cells are washed with PBS. Treatments of fruit extracts or antioxidant compounds in 100 μL treatment medium (Williams' Medium E supplemented with 2 mM L-glutamine and 10 mM Hepes) are applied to the cells and the plates are incubated at 37° C. for 24 h. The treatment medium is removed and the cells are washed with PBS. A volume of 50 μL/well methylene blue staining solution (98% HBSS, 0.67% glutaraldehyde, 0.6% methylene blue) is applied to each well and the plate is incubated at 37° C. for 1 h.
(§2) Excess dye is removed by immersing the plate in fresh deionized water until the water appears clear. The excess water should be tapped out of the wells and the plate allowed to air-dry briefly before addition of 100 μL elution solution (49% PBS, 50% ethanol, 1% acetic acid) to each well. The microplate is then placed on a bench-top shaker for 20 minutes to allow uniform elution. The absorbance is read at 570 nm with blank subtraction using, for example a MRX II DYNEX spectrophotometer (DYNEX Inc., Chantilly, Va.). Concentrations of pure compounds or fruit extracts that decrease the absorbance by more than 10% when compared to the control are considered to be cytotoxic.
(§3) Cytotoxicity was measured using the method of Oliver et al. (31) with modifications by our laboratory (32). […] The medium was removed and the cells were washed with PBS. Treatments of fruit extracts or antioxidant compounds in 100 μL treatment medium (Williams' Medium E supplemented with 2 mM L-glutamine and 10 mM Hepes) were applied to the cells and the plates were incubated at 37° C. for 24 h. The treatment medium was removed and the cells were washed with PBS. A volume of 50 μL/well methylene blue staining solution (98% HBSS, 0.67% glutaraldehyde, 0.6% methylene blue) was applied to each well and the plate was incubated at 37° C. for 1 h. The dye was removed and the plate was immersed in fresh deionized water three times, or until the water was clear. The water was tapped out of the wells and the plate was allowed to air-dry briefly before 100 μL elution solution (49% PBS, 50% ethanol, 1% acetic acid) was added to each well. The microplate was placed on a bench-top shaker for 20 minutes to allow uniform elution. The absorbance was read at 570 nm with blank subtraction using the MRX II DYNEX spectrophotometer (DYNEX Inc., Chantilly, Va.). Concentrations of pure compounds or fruit extracts that decreased the absorbance by more than 10% when compared to the control were considered to be cytotoxic.
(§4) The median cytotoxic concentration (CC50) was calculated for each fruit.
(§5) Briefly, HepG2 cells were seeded at 4×10^4/well on a 96-well plate in 100 μL growth medium and incubated for 24 h at 37° C. The medium was removed, and the cells were washed with PBS. Flavonoids in 100 μL growth medium were applied to the cells, and the plates were incubated at 37° C. for 24 h. The medium was removed, and the cells were washed with PBS before a volume of 50 μL/well methylene blue staining solution (98% HBSS, 0.67% glutaraldehyde, 0.6% methylene blue) was applied to each well, and the plate was incubated at 37° C. for 1 h. The dye was removed, and the plate was immersed in fresh deionized water until the water was clear. The water was tapped out of the wells, and the plate was allowed to air-dry briefly before 100 μL of elution solution (49% PBS, 50% ethanol, 1% acetic acid) was added to each well. The microplate was placed on a benchtop shaker for 20 min to allow uniform
(§6) elution. The absorbance was read at 570 nm with blank subtraction using the MRX II Dynex spectrophotometer (Dynex Inc., Chantilly, Va.). The median cytotoxic concentration (CC50) was calculated for each flavonoid.

HepG2 cells [2] = assay: in vitro
Protocol: as §1, §2, §3, §4, §5, §6

[3] = HepG2, Example 1, Table 1, PBS wash, pure phytochemical compounds, mean ± SD, n=3, read-out: EC50 for inhibition of peroxyl radical-induced DCFH oxidation
[4] = HepG2, Example 1, Table 1, no PBS wash, pure phytochemical compounds, mean ± SD, n=3, read-out: EC50 for inhibition of peroxyl radical-induced DCFH oxidation

Row | EC50 (HepG2 cells [1]; [3]) [µM] | EC50 (HepG2 cells [1]; [4]) [µM] | EC50 (HepG2 cells [1]; HepG2, Example 3, Table 7, PBS wash, flavonoids, mean ± SD, n=3, read-out: EC50) [µM] | EC50 (HepG2 cells [1]; HepG2, Example 3, Table 7, no PBS wash, flavonoids, mean ± SD, n=3, read-out: EC50) [µM] | EC50 (HepG2 cells [1]; HepG2, Example 3, text, no PBS wash, read-out: EC50) [µM] | Compound | CAA (HepG2 cells [1]; Example 3, Table 7, no PBS wash) | CC50 at 24 h (in vitro) [µM] | Cytotoxicity (cytotoxic concentration) (HepG2 cells [2]; human, 24 h) [µM] | cellular antioxidant activity, result in words (HepG2 cells [1]) | Cytotoxicity (cytotoxic concentration) (HepG2 cells [2]; Example 1, dose at which the cell number is reduced by more than 10% after 24 h treatment) [µM]
1 | > 600 | > 200 | > 800 | 457 ± 47 | 457 ± 47 | Oc1cc(O)c2c(c1)O[C@H](c1ccc(O)c(O)c1)[C@H](O)C2 [Epicatechin, (−)-epicatechin] | 1.9 ± 0.2 μmol of QE/100 μmol | > 1000 | >500 |  | 
2 | > 25 | > 25 |  |  |  | O=C(CCc1ccc(O)cc1)c1c(O)cc(O)cc1O [Phloretin, phloretin] |  |  | 25 | activity only at doses much higher than their cytotoxic concentrations | 
3 | > 40 | > 40 |  |  |  | Oc1ccc(C=Cc2cc(O)cc(O)c2)cc1 [Resveratrol, resveratrol] |  |  |  | activity only at doses much higher than their cytotoxic concentrations | 40
